Here are results for 33 molecules from US10125118B2, “Heteroaryl compounds and their use as therapeutic drugs” (Dong-A Socio Holdings Co., Ltd., priority 2015, dated 2018).

For orientation: IC50 means the concentration at which inhibition is half-maximal.

human c-MER catalytic domain, sequence (Q12866 587-858): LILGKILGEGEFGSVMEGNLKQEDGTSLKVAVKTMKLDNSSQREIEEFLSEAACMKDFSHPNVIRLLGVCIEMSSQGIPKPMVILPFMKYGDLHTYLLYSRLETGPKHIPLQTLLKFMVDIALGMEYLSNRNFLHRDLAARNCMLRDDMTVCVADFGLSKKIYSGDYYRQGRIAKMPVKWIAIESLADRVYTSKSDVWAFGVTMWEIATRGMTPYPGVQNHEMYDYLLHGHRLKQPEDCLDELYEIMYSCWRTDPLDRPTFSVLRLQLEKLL

This test has as its target human c-MER catalytic domain (Homo sapiens (Human), UniProt Q12866). The test is described as follows: LanthaScreen TR-FRET kinase assay, c-MER. The settings on record: read-out: Mer TK inhibition (IC50); Biochemical IC50, TR-FRET, 10 uM ATP.
Turning to `COc1ccc(CO[C@H]2CCC[C@@H]2NC(=O)c2cc(-c3cnn(C)c3)cnc2N)cc1` [Example 35, 2-amino-N-((1S,2S)-2-((4-methoxybenzyl)oxy)cyclopentyl)-5-(1-methyl-1H-pyrazol-4-yl)nicotinamide], the IC50 is greater than 1 µM.

For the molecule `Cn1cc(-c2cnc(N)c(C(=O)N[C@@H](COCc3ccccc3)Cc3ccccc3)c2)cn1` [Example 118, (R)-2-amino-N-(1-(benzyloxy)-3-phenylpropan-2-yl)-5-(1-methyl-1H-pyrazol-4-yl)nicotinamide], the IC50 was greater than 1 µM.

In the case of `Cc1ccc(CO[C@H]2CCC[C@@H]2NC(=O)c2cc(-c3ccc(CNCC4CCN(C)CC4)cc3)cnc2N)cc1C` [Example 329, 2-amino-N-((1S,2S)-2-((3,4-dimethylbenzyl)oxy)cyclopentyl)-5-(4-((((1-methylpiperidin-4-yl)methyl)amino)methyl)phenyl)nicotinamide], the IC50 is less than 0.01 µM.

As for `CC(C)[C@H](COCc1ccccc1)NC(=O)c1cc(-c2cnn(C)c2)cnc1N` [Example 110, (R)-2-amino-N-(1-(benzyloxy)-3-methylbutan-2-yl)-5-(1-methyl-1H-pyrazol-4-yl)nicotinamide], the half-maximal inhibitory concentration (IC50) is greater than 1 µM. On to `Nc1nc(Nc2ccccc2)ccc1C(=O)N[C@H]1CCC[C@@H]1OCc1ccccc1` [Example 457, 2-amino-N-((1S,2S)-2-(benzyloxy)cyclopentyl)-6-(phenylamino)-nicotinamide], for which the concentration for half-maximal inhibition (IC50) is greater than 1 µM. With `Cn1cc(-c2cnc(N)c(C(=O)N[C@H](COCc3ccccc3)c3ccccc3)c2)cn1` [Example 115, (S)-2-amino-N-(2-(benzyloxy)-1-phenylethyl)-5-(1-methyl-1H-pyrazol-4-yl)nicotinamide], the IC50 is greater than 1 µM. The figure for `Cn1cc(-c2cnc(N)c(C(=O)N[C@H]3CCC[C@@H]3OCc3ccccc3)c2)c(CN2CCCC(O)C2)n1` (stereo partly drawn) [Example 263, 2-amino-N-((1S,2S)-2-(benzyloxy)cyclopentyl)-5-(3-((3-hydroxypiperidin-1-yl)methyl)-1-methyl-1H-pyrazol-4-yl)nicotinamide] is greater than 1 µM; for `CN(C)CCCc1ccc(CO[C@H]2CCC[C@@H]2NC(=O)c2cc(-c3cnn(C)c3)cnc2N)cc1` [Example 244, 2-amino-N-((1S,2S)-2-((4-(3-(dimethylamino)propyl)benzyl)oxy)-cyclopentyl)-5-(1-methyl-1H-pyrazol-4-yl)nicotinamide] it is greater than 1 µM; for `C[C@@H](OCc1ccccc1)[C@H](NC(=O)c1cc(-c2cnn(C)c2)cnc1N)C(=O)NC1CCCC1` [Example 124, 2-amino-N-((2S,3R)-3-(benzyloxy)-1-(cyclopentylamino)-1-oxobutan-2-yl)-5-(1-methyl-1H-pyrazol-4-yl)nicotinamide] it is greater than 1 µM. Turning to `CN1CCN(Cc2ccc(-c3ccc(CO[C@H]4CCCC[C@@H]4NC(=O)c4cc(-c5cnn(C)c5)cnc4N)cc3)cc2)CC1` [Example 166, 2-amino-5-(1-methyl-1H-pyrazol-4-yl)-N-((1S,2S)-2-((4′-((4-methylpiperazin-1-yl)methyl)-[1,1′-biphenyl]-4-yl)methoxy)cyclohexyl)nicotinamide], the IC50 is greater than 1 µM. For `CN1CCN(C(C)(C)c2ccc(-c3ccc(CO[C@H]4CCC[C@@H]4NC(=O)c4cccnc4N)cc3)cc2)CC1` [Example 167, 2-amino-N-((1S,2S)-2-((4′-(2-(4-methylpiperazin-1-yl)propan-2-yl)-[1,1′-biphenyl]-4-yl)methoxy)cyclopentyl)nicotinamide], the IC50 was less than 0.01 µM. For `COC(=O)[C@@H](NC(=O)c1cc(-c2cnn(C)c2)cnc1N)[C@@H](C)OCc1ccccc1` [Example 121, methyl N-(2-amino-5-(1-methyl-1H-pyrazol-4-yl)nicotinoyl)-O-benzyl-L-threoninate], the IC50 was greater than 1 µM. For `Cn1cc(-c2cnc(N)c(C(=O)NC(C)(C)COCc3ccccc3)c2)cn1` [Example 99, 2-amino-N-(1-(benzyloxy)-2-methylpropan-2-yl)-5-(1-methyl-1H-pyrazol-4-yl)nicotinamide], the IC50 was greater than 1 µM.

Regarding `CN1CCN(Cc2ccc(-c3ccc(CO[C@H]4CCC[C@@H]4NC(=O)c4cc(-c5cnn(C)c5)cnc4N)cc3)nc2)CC1` [Example 204, 2-amino-5-(1-methyl-1H-pyrazol-4-yl)-N-((1S,2S)-2-((4-(5-((4-methylpiperazin-1-yl)methyl)pyridin-2-yl)benzyl)oxy)cyclopentyl)nicotinamide], the IC50 was less than 0.01 µM. As to `Cc1ccc(COC[C@@H](C)NC(=O)c2cc(-c3cnn(C)c3)cnc2N)cc1C` [Example 100, (R)-2-amino-N-(1-((3,4-dimethylbenzyl)oxy)propan-2-yl)-5-(1-methyl-1H-pyrazol-4-yl)nicotinamide], the IC50 was greater than 1 µM. Turning to `CC(=O)N[C@@H](C)C(=O)Nc1cccc(CO[C@H]2CCC[C@@H]2NC(=O)c2cc(-c3cnn(C)c3)cnc2N)c1` [Example 59, N-((1S,2S)-2-((3-((S)-2-acetamidopropanamido)benzyl)oxy)-cyclopentyl)-2-amino-5-(1-methyl-1H-pyrazol-4-yl)nicotinamide], the IC50 is greater than 1 µM.

For `Cn1cc(-c2cnc(N)c(C(=O)N[C@H]3CCC[C@@H]3COc3cccc(C(=O)N4CCCCC4)c3)c2)cn1` [Example 83, 2-amino-5-(1-methyl-1H-pyrazol-4-yl)-N-((1S,2S)-2-((3-(piperidine-1-carbonyl)phenoxy)methyl)cyclopentyl)nicotinamide], the IC50 is greater than 1 µM. The figure for `CNC(=O)[C@@H](NC(=O)c1cc(-c2cnn(C)c2)cnc1N)[C@@H](C)OCc1ccccc1` [Example 122, 2-amino-N-((2S,3R)-3-(benzyloxy)-1-(methylamino)-1-oxobutan-2-yl)-5-(1-methyl-1H-pyrazol-4-yl)nicotinamide] is greater than 1 µM; for `Cn1cc(-c2cnc(N)c(C(=O)N[C@H]3CCC[C@@H]3OCc3cccc(-c4cccc(O)c4)c3)c2)cn1` [Example 169, 2-amino-N-((1S,2S)-2-((3′-hydroxy-[1,1′-biphenyl]-3-yl)-methoxy)cyclopentyl)-5-(1-methyl-1H-pyrazol-4-yl)nicotinamide] it is greater than 1 µM; for `C[C@@H](CNC(=O)c1cc(-c2cnn(C)c2)cnc1N)OCc1ccccc1` [Example 96, (S)-2-amino-N-(2-(benzyloxy)propyl)-5-(1-methyl-1H-pyrazol-4-yl)nicotinamide] it is greater than 1 µM. As to `CCNc1ncc(-c2cnn(C)c2)cc1C(=O)N[C@H]1CCC[C@@H]1OCc1ccccc1` [Example 71, N-((1S,2S)-2-(benzyloxy)cyclopentyl)-2-(ethylamino)-5-(1-methyl-1H-pyrazol-4-yl)nicotinamide], the half-inhibitory concentration (IC50) was greater than 1 µM. The figure for `C[C@H](NC(=O)c1cc(-c2cnn(C)c2)cnc1N)C(=O)OCc1ccccc1` [Example 126, benzyl (2-amino-5-(1-methyl-1H-pyrazol-4-yl)nicotinoyl)-L-alaninate] is greater than 1 µM; for `CC(C)[C@@H](COCc1ccccc1)NC(=O)c1cc(-c2cnn(C)c2)cnc1N` [Example 109, (S)-2-amino-N-(1-(benzyloxy)-3-methylbutan-2-yl)-5-(1-methyl-1H-pyrazol-4-yl)nicotinamide] it is greater than 1 µM; for `Cn1cc(-c2cnc(N)c(C(=O)N[C@H]3CCC[C@@H]3OCc3cccc(O)c3)c2)cn1` [Example 32, 2-amino-N-((1S,2S)-2-((3-hydroxybenzyl)oxy)cyclopentyl)-5-(1-methyl-1H-pyrazol-4-yl)nicotinamide] it is greater than 1 µM.

For `C[C@H](COCc1ccccc1)NC(=O)c1cc(-c2cnn(C)c2)cnc1N` [Example 98, (R)-2-amino-N-(1-(benzyloxy)propan-2-yl)-5-(1-methyl-1H-pyrazol-4-yl)nicotinamide], the IC50 was greater than 1 µM. For `Cn1cc(-c2cnc(N)c(C(=O)N[C@H]3COC[C@@H]3N3CCCC3)c2)cn1` (relative stereo) [Example 91, 2-amino-5-(1-methyl-1H-pyrazol-4-yl)-N-(trans-4-(pyrrolidin-1-yl)tetrahydrofuran-3-yl)nicotinamide], the IC50 was greater than 1 µM. On to `Cn1cc(-c2cnc(N)c(C(=O)N[C@H]3CCC[C@@H]3OCc3cccc(C(=O)NCCO)c3)c2)cn1` [Example 56, 2-amino-N-((1S,2S)-2-((3-((2-hydroxyethyl)carbamoyl)benzyl)-oxy)cyclopentyl)-5-(1-methyl-1H-pyrazol-4-yl)nicotinamide], for which the IC50 was greater than 1 µM. For `Cn1cc(-c2cnc(N)c(C(=O)N[C@H]3CCC[C@@H]3O)c2)cn1` [Example 69, 2-amino-N-((1S,2S)-2-hydroxycyclopentyl)-5-(1-methyl-1H-pyrazol-4-yl)nicotinamide] the value was greater than 1 µM. `CN1CCN(Cc2ccc(Nc3ccc(C(=O)N[C@H]4CCC[C@@H]4OCc4ccccc4)c(N)n3)cc2)CC1` [Example 456, 2-amino-N-((1S,2S)-2-(benzyloxy)cyclopentyl)-6-((4-((4-methylpiperazin-1-yl)methyl)phenyl)amino)nicotinamide]: the IC50 was greater than 1 µM.

For the molecule `CC[C@H](COCc1ccccc1)NC(=O)c1cc(-c2cnn(C)c2)cnc1N` [Example 108, (R)-2-amino-N-(1-(benzyloxy)butan-2-yl)-5-(1-methyl-1H-pyrazol-4-yl)nicotinamide], the IC50 is greater than 1 µM. In the case of `CC(c1ccc(-c2ccc(CO[C@H]3CCC[C@@H]3NC(=O)c3cc(Cl)cnc3N)cc2)cc1)N1CCN(C)CC1` (stereo partly drawn) [Example 231], the IC50 is less than 0.01 µM. For `CCCNC(=O)[C@@H](NC(=O)c1cc(-c2cnn(C)c2)cnc1N)[C@@H](C)OCc1ccccc1` [Example 123, 2-amino-N-((2S,3R)-3-(benzyloxy)-1-oxo-1-(propylamino)butan-2-yl)-5-(1-methyl-1H-pyrazol-4-yl)nicotinamide], the IC50 is greater than 1 µM. For `Nc1ncc(-c2cnn(C3CCNCC3)c2)nc1C(=O)N[C@H]1CCCc2ccccc21` [Example 362, (S)-3-amino-6-(1-(piperidin-4-yl)-1H-pyrazol-4-yl)-N-(1,2,3,4-tetrahydronaphthalen-1-yl)pyrazine-2-carboxamide] the value was greater than 1 µM.
